{"source": "paper PMC8064871", "about": "(International Journal of Biological Macromolecules, 2021)", "molecular_target": "T1, human chymotrypsin-C (CTRC) (Homo sapiens, UniProt Q99895)", "T1 sequence (Q99895 30-268)": "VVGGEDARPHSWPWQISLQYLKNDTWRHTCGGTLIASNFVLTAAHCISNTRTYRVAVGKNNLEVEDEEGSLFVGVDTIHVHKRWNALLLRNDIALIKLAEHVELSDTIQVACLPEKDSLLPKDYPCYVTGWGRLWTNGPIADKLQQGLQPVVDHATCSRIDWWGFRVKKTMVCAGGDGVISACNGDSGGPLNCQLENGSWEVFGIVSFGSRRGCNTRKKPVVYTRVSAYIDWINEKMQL", "experiment": "In vitro assessment of human chymotrypsin C", "type": "biochemical", "conditions": "0, 1, 10, 100 µM; 30 min at 37 °C; OD405", "data": [{"smiles": "CC1=CC(=O)c2ccccc2C1=O", "note": "[Entry 1, 2-Methyl-1,4-naphthoquinone (vitamin K3), reference compound]", "values": [{"measurement": "inhibition of human CTRC activity (in words)", "result": "selectively inhibit SARS-CoV-2 and SARS-CoV 3CL^pro, rather than human CTRC"}]}]}
